Assay results: article PMC4239642, “trans-Acting Arginine Residues in the AAA+ Chaperone ClpB Allosterically Regulate the Activity through Inter- and Intradomain Communication” (The Journal of Biological Chemistry, 2014)
Read-outs that look alike come from different tables or passages of the source. Values belong to the molecule of their own block, whether it stands above or below them.

Tests used:
[1] = biological target: T1, ClpB NBD1-M dimer with P221C/M394C disulfide crosslink (Thermus thermophilus, UniProt Q9RA63, P221C/M394C); assay: fluorescence displacement titration against MANT-dADP; format: binding; details: 2 µM protein, 50 mM Tris/HCl pH 7.5, 50 mM KCl, 5 mM MgCl2, 2 mM EDTA, 25 °C
T1 construct: NBD1-M (residues 141-534) covalent dimer linked by intermolecular disulfide between P221C of one subunit and M394C of the other; expressed in E. coli BL21 (DE3) RIL; one cross-linked and one free site; associates to tetramers with ATP
From the text: (§1) fluorescence displacement titration against MANT-dADP on ClpB NBD1-M dimer with P221C/M394C disulfide crosslink

[2] = biological target: T2, ClpB NBD1-M (Thermus thermophilus, UniProt Q9RA63, R322A/R323A); assay: as above; format: binding; details: 2 µM protein, 50 mM Tris/HCl pH 7.5, 50 mM KCl, 5 mM MgCl2, 2 mM EDTA, 25 °C
T2 construct: expressed in E. coli BL21 (DE3) RIL; monomer/dimer equilibrium for the arginine mutants
From the text: (§2) fluorescence displacement titration against MANT-dADP on ClpB NBD1-M

[3] = biological target: T3, ClpB NBD1-M (Thermus thermophilus, UniProt Q9RA63, R323A); assay: as above; format: binding; details: 2 µM protein, 50 mM Tris/HCl pH 7.5, 50 mM KCl, 5 mM MgCl2, 2 mM EDTA, 25 °C
T3 construct: expressed in E. coli BL21 (DE3) RIL; monomer/dimer equilibrium for the arginine mutants
From the text: as §2

[4] = biological target: T4, ClpB NBD1-M (Thermus thermophilus, UniProt Q9RA63, R322A); assay: as above; format: binding; details: 2 µM protein, 50 mM Tris/HCl pH 7.5, 50 mM KCl, 5 mM MgCl2, 2 mM EDTA, 25 °C
T4 construct: expressed in E. coli BL21 (DE3) RIL; monomer/dimer equilibrium for the arginine mutants
From the text: as §2

[5] = biological target: T5, ClpB NBD1-M dimer with P221C/M394C disulfide crosslink (Thermus thermophilus, UniProt Q9RA63, P221C/M394C, form not given); assay: as above; format: binding; details: read-out: KD(ATP); 2 µM protein; 50 mM Tris/HCl pH 7.5, 50 mM KCl, 5 mM MgCl2, 2 mM EDTA, 25 °C; ATP-regenerating system (phosphoenolpyruvate, pyruvate kinase)
T5 construct: NBD1-M (residues 141-534) covalent dimer linked by intermolecular disulfide between P221C of one subunit and M394C of the other; expressed in E. coli BL21 (DE3) RIL; one cross-linked and one free site; associates to tetramers with ATP
From the text: as §1

[6] = biological target: T1, ClpB NBD1-M dimer with P221C/M394C disulfide crosslink; assay: coupled colorimetric ATPase assay, Hill equation fit; format: biochemical; details: 5 µM protein (monomer units); 50 mM Tris/HCl pH 7.5, 100 mM KCl, 10 mM MgCl2, 2 mM EDTA, 25 °C; kcat per monomer
From the text: coupled colorimetric ATPase assay, Hill equation fit on ClpB NBD1-M dimer with P221C/M394C disulfide crosslink

[7] = biological target: T2, ClpB NBD1-M; assay: stopped-flow FRET kinetics (koff/kon); format: binding
From the text: (§3) stopped-flow FRET kinetics (koff/kon) on ClpB NBD1-M

[8] = biological target: T3, ClpB NBD1-M; assay: stopped-flow FRET kinetics (koff/kon); format: binding
From the text: as §3

[9] = biological target: T4, ClpB NBD1-M; assay: stopped-flow FRET kinetics (koff/kon); format: binding
From the text: as §3

[10] = biological target: T6, ClpB NBD1-M dimer with P221C/M394C disulfide crosslink (Thermus thermophilus, UniProt Q9RA63, M394C/P221C); assay: stopped-flow FRET kinetics (koff/kon); format: binding; details: read-out: KD "free"
T6 construct: NBD1-M (residues 141-534) covalent dimer linked by intermolecular disulfide between P221C of one subunit and M394C of the other; expressed in E. coli BL21 (DE3) RIL; one cross-linked and one free site; associates to tetramers with ATP
From the text: stopped-flow FRET kinetics (koff/kon) on ClpB NBD1-M dimer with P221C/M394C disulfide crosslink

[11] = read-out: KD(ATP), ATP-regenerating system (phosphoenolpyruvate, pyruvate kinase)

T1 sequence (Q9RA63 141-534 M394C): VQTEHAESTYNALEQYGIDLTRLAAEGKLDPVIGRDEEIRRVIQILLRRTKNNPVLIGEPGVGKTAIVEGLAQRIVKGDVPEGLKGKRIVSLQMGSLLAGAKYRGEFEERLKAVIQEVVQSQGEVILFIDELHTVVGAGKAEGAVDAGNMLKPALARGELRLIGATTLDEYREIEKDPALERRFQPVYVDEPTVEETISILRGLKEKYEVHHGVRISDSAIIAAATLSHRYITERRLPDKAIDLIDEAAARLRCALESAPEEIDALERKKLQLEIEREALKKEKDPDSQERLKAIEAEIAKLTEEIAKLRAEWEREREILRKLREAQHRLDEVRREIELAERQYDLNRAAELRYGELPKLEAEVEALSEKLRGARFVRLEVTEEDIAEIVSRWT
T1 sequence (Q9RA63 141-534 P221C): as the sequence (Q9RA63 141-534 M394C) above, with P81C, C254M counted along it
T2 sequence (Q9RA63 141-534 R322A/R323A): as the sequence (Q9RA63 141-534 M394C) above, with R182A, R183A, C254M counted along it
T3 sequence (Q9RA63 141-534 R323A): as the sequence (Q9RA63 141-534 M394C) above, with R183A, C254M counted along it
T4 sequence (Q9RA63 141-534 R322A): as the sequence (Q9RA63 141-534 M394C) above, with R182A, C254M counted along it
T5 sequence (Q9RA63 141-534 M394C): as the sequence (Q9RA63 141-534 M394C) above
T5 sequence (Q9RA63 141-534 P221C): as the sequence (Q9RA63 141-534 M394C) above, with P81C, C254M counted along it
T6 sequence (Q9RA63 141-534 M394C): as the sequence (Q9RA63 141-534 M394C) above
T6 sequence (Q9RA63 141-534 P221C): as the sequence (Q9RA63 141-534 M394C) above, with P81C, C254M counted along it

Kd ([1]; read-out: KD(ADP)): 1.3 ± 0.1 µM
Kd ([2]; read-out: KD(ADP)): 9.3 ± 0.7 µM
Kd ([3]; read-out: KD(ADP)): 10.2 ± 0.6 µM
Kd ([4]; read-out: KD(ADP)): 10.7 ± 0.6 µM
SMILES: Nc1ncnc2c1ncn2[C@@H]1O[C@H](COP(=O)(O)OP(=O)(O)O)[C@@H](O)[C@H]1O [ADP]

Kd [5]: 438 ± 17 µM
Kd [1, 11]: 96 ± 11 µM
Kd [2, 11]: 2050 ± 180 µM
Kd [3, 11]: 1040 ± 120 µM
Kd [4, 11]: 1670 ± 160 µM
Km [6]: 162 ± 4 µM
SMILES: Nc1ncnc2c1ncn2[C@@H]1O[C@H](COP(=O)(O)OP(=O)(O)OP(=O)(O)O)[C@@H](O)[C@H]1O [ATP]

Kd [7]: 6.9 ± 0.2 µM
Kd [8]: 6.7 ± 0.2 µM
Kd [9]: 8.3 ± 0.4 µM
Kd [10]: 0.67 ± 0.04 µM
SMILES: CNc1ccccc1C(=O)O[C@H]1C[C@H](n2cnc3c(N)ncnc32)O[C@@H]1COP(=O)(O)OP(=O)(O)O [MANT-dADP, 2′-deoxy-3′-O-(N′-methylanthraniloyl)adenosine-5′-O-diphosphate]
